What was measured:
[1] = system: redroot pigweed; assay: Test A pre-/postemergence herbicide test; type: in vivo, Amaranthus retroflexus
Outline: (§1)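 Seeds sown in sandy loam received a preemergence directed soil spray of compound in non-phytotoxic solvent with surfactant; postemergence plants (2–10 cm, one- to two-leaf stage) were sprayed to runoff at the same time. After ~10 days in greenhouse, injury was rated visually versus untreated controls (0 = no effect, 100 = complete control).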

[2] = system: lambsquarters; assay: Test C pre-/postemergence herbicide test; type: in vivo, Chenopodium album
Outline: (§2)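 Seeds were planted and sprayed preemergence with test chemicals in a non-phytotoxic solvent mixture containing surfactant; postemergence treatments went onto plants 2 to 18 cm tall (1- to 4-leaf stage). After 12 to 14 days in a greenhouse, injury was rated visually against untreated controls on a 0–100 scale.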

[3] = system: giant foxtail; assay: Test A pre-/postemergence herbicide test; type: in vivo, Setaria faberi
Outline: as §1

[4] = system: Surinam grass; assay: Test C pre-/postemergence herbicide test; type: in vivo, Urochloa decumbens
Outline: as §2

[5] = system: yellow nutsedge; assay: Test C pre-/postemergence herbicide test; type: in vivo, Cyperus esculentus
Outline: as §2

[6] = system: large crabgrass; assay: Test C pre-/postemergence herbicide test; type: in vivo, Digitaria sanguinalis
Outline: as §2

[7] = system: barnyardgrass; assay: Test B pre-/postemergence herbicide test; type: in vivo, Echinochloa crus-galli
Outline: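 Greenhouse pot assay with simultaneous preemergence (treated seed) and postemergence (2–18 cm seedlings) applications of surfactant-containing, non-phytotoxic solvent formulations. Response scored visually 13–15 days later on a 0–100 scale, 100 meaning complete control.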

[8] = system: ducksalad; assay: Test B flooded paddy test; type: in vivo, Heteranthera limosa; conditions: 1000 g ai/ha, scale 0 to 100 (0 no effect, 100 complete control)
Outline: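 Greenhouse test; postemergence application to plants at 1–4 leaves (2–18 cm); paddy species at 2 leaves; evaluated visually vs controls at 13–15 days; scale 0–100 (100 = complete control).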

[9] = system: common ragweed; assay: Test C pre-/postemergence herbicide test; type: in vivo, Ambrosia elatior; design: key to Plant response rating, Ragweed: 0 = no effect, 100 = complete control
Outline: as §2

[10] = Postemergence, 500 g ai/ha, 0 to 100 scale, 0 no effect, 100 complete control
[11] = Postemergence, 2000 g ai/ha, 0 to 100 scale, 0 no effect, 100 complete control
[12] = Preemergence, 2000 g ai/ha, visual rating, 0 to 100 scale (0 no effect, 100 complete control)
[13] = preemergence, 500 g ai/ha, visual injury, 0 to 100 scale (0 no effect, 100 complete control)
[14] = 125 g ai/ha, scale 0 (no effect) to 100 (complete control), visual, 12 to 14 days, preemergence
[15] = Postemergence, 500 g ai/ha, scale 0 to 100
[16] = Postemergence, 250 g ai/ha, scale 0 to 100, 0 no effect, 100 complete control
[17] = Preemergence, 500 g ai/ha, scale 0 to 100, 0 no effect, 100 complete control
[18] = postemergence, 125 g ai/ha, scale 0 to 100
[19] = postemergence, 62 g ai/ha, scale 0 to 100
[20] = Preemergence, 500 g ai/ha, visual rating, 0 to 100 scale (0 no effect, 100 complete control)
[21] = 500 g ai/ha; visual rating 0-100, 0 no effect, 100 complete control; preemergence
[22] = postemergence, 125 g ai/ha; visual rating, scale 0 (no effect) to 100 (complete control)
[23] = postemergence, 500 g ai/ha; visual rating, scale 0 (no effect) to 100 (complete control)
[24] = preemergence, 125 g ai/ha; 0 to 100 scale, 0 is no effect, 100 is complete control
[25] = 62 g ai/ha, preemergence, scale 0 to 100
[26] = 250 g ai/ha, scale 0-100, preemergence
[27] = 500 g ai/ha, scale 0 to 100 (0 no effect, 100 complete control), visual, 12 to 14 days, preemergence

In the case of `CCn1nc(C(C)(C)C)cc1C(=O)Nc1cccc(C(=O)NC2CC2)n1` [Compound 146], the “Pigweed plant response rating” value [1, 10] is reported as 85, the “Plant response rating, Pigweed” value [1, 11] is reported as 100 and the “Pigweed plant response rating” value [1, 12] is reported as 95. The “Pigweed plant response rating” value [1, 13] was 85, the “Plant response rating (0 = no effect, 100 = complete control), Lambsquarters” value ([2]; 62 g ai/ha, preemergence) was 85 and the “Plant response rating, Lambsquarters” value [2, 14] was 90. For the same compound, the “Lambsquarters plant response rating” value [2, 15] was 100, the “Plant response rating, Lambsquarters” value [2, 16] was 100 and the “Lambsquarters plant response rating” value [2, 17] was 100. For the same compound, the “Plant response rating, Lambsquarters” value [2, 18] was 80, the “Plant response rating, Lambsquarters” value [2, 19] was 40 and the “Foxtail, Giant plant response rating” value [3, 10] was 15. For the same compound, the “Plant response rating, Foxtail, Giant” value [3, 11] was 40, the “Foxtail, Giant plant response rating” value [3, 20] was 45 and the “Foxtail, Giant plant response rating” value [3, 12] was 45. The “Plant response rating (0 = no effect, 100 = complete control), Surinam Grass” value ([4]; 62 g ai/ha, preemergence) was 0, the “Plant response rating, Surinam Grass” value [4, 14] was 0 and the “Surinam Grass plant response rating” value [4, 15] was 20. For the same compound, the “Plant response rating, Surinam Grass” value [4, 16] was 0, the “Surinam Grass plant response rating” value [4, 17] was 50 and the “Plant response rating, Surinam Grass” value [4, 18] was 0. For the same compound, the “Plant response rating, Surinam Grass” value [4, 19] was 0, the “Plant response rating (0 = no effect, 100 = complete control), Nutsedge, Yellow” value ([5]; 62 g ai/ha, preemergence) was 0 and the “Plant response rating, Nutsedge, Yellow” value [5, 14] was 0. For the same compound, the “Nutsedge, Yellow plant response rating” value [5, 15] was 0, the “Plant response rating, Nutsedge, Yellow” value [5, 16] was 0 and the “Nutsedge, Yellow plant response rating” value [5, 17] was 0. The “Plant response rating, Nutsedge, Yellow” value [5, 18] was 0, the “Plant response rating, Nutsedge, Yellow” value [5, 19] was 0 and the “Plant response rating (0 = no effect, 100 = complete control), Crabgrass, Large” value ([6]; 62 g ai/ha, preemergence) was 20. The “Crabgrass, Large plant response rating” value [6, 15] was 85, the “Plant response rating, Crabgrass, Large” value [6, 16] was 50 and the “Crabgrass, Large plant response rating” value [6, 17] was 70. The “Plant response rating, Crabgrass, Large” value [6, 18] was 0, the “Plant response rating, Crabgrass, Large” value [6, 19] was 0 and the “Plant response rating, Barnyardgrass” value [7, 21] was 90. The “Barnyardgrass plant response rating” value [7, 22] was 20, the “Barnyardgrass plant response rating” value [7, 23] was 60 and the “Plant response rating, Barnyardgrass” value [7, 24] was 40. For the same compound, the “Ducksalad plant response rating” value ([8]; visual rating, 13 to 15 days) was 80, the “Plant response rating (0 = no effect, 100 = complete control), Ragweed” value ([9]; 62 g ai/ha, preemergence) was 0 and the “Plant response rating, Ragweed” value [9, 14] was 0. The “Ragweed plant response rating” value [9, 15] was 0, the “Plant response rating, Ragweed” value [9, 16] was 0 and the “Ragweed plant response rating” value [9, 17] was 70. For the same compound, the “Plant response rating, Ragweed” value [9, 18] was 0 and the “Plant response rating, Ragweed” value [9, 19] was 0.
With `CCn1nc(C(C)(C)C)cc1C(=O)Nc1cncc(C(=O)N(C)C)n1` [Compound 287] the “Pigweed plant response rating” value [1, 10] was 50, the “Plant response rating, Pigweed” value [1, 11] was 80 and the “Pigweed plant response rating” value [1, 12] was 100. For the same compound, the “Pigweed plant response rating” value [1, 13] was 100, the “Plant response rating, Lambsquarters” value [2, 25] was 100 and the “Plant response rating, Lambsquarters” value [2, 14] was 100. For the same compound, the “Plant response rating, Lambsquarters” value [2, 26] was 100, the “Plant response rating, Lambsquarters” value [2, 27] was 100 and the “Foxtail, Giant plant response rating” value [3, 10] was 40. For the same compound, the “Plant response rating, Foxtail, Giant” value [3, 11] was 90, the “Foxtail, Giant plant response rating” value [3, 12] was 100 and the “Foxtail, Giant plant response rating” value [3, 13] was 65. For the same compound, the “Plant response rating, Surinam Grass” value [4, 26] was 65, the “Plant response rating, Surinam Grass” value [4, 27] was 95 and the “Plant response rating, Nutsedge, Yellow” value [5, 25] was 0. The “Plant response rating, Nutsedge, Yellow” value [5, 14] was 15, the “Plant response rating, Nutsedge, Yellow” value [5, 26] was 60 and the “Plant response rating, Nutsedge, Yellow” value [5, 27] was 85. For the same compound, the “Plant response rating, Crabgrass, Large” value [6, 25] was 65, the “Plant response rating, Crabgrass, Large” value [6, 14] was 95 and the “Plant response rating, Crabgrass, Large” value [6, 26] was 95. The “Plant response rating, Crabgrass, Large” value [6, 27] was 100, the “Barnyardgrass plant response rating (0 to 100 scale)” value ([7]; 125 g ai/ha; 0 = no effect, 100 = complete control; preemergence) was 80 and the “Barnyardgrass plant response rating” value ([7]; 125 g ai/ha; visual rating, scale 0 (no effect) to 100 (complete control); postemergence) was 0. For the same compound, the “Plant response rating, Barnyardgrass” value ([7]; 500 g ai/ha; visual rating, 0 = no effect, 100 = complete control; preemergence) was 100, the “Barnyardgrass plant response rating” value ([7]; postemergence, 500 g ai/ha; scale 0 to 100, 0 is no effect, 100 is complete control) was 20 and the “Ducksalad plant response rating” value [8] was 80. The “Plant response rating, Ragweed” value [9, 25] was 100, the “Plant response rating, Ragweed” value [9, 26] was 100 and the “Plant response rating, Ragweed” value [9, 27] was 100.
For `CCN(CC)C(=O)c1cccc(NC(=O)c2cc(C(C)(C)C)nn2CC)n1` [Compound 145], the “Pigweed plant response rating” value [1, 10] was 90, the “Plant response rating, Pigweed” value [1, 11] was 100 and the “Pigweed plant response rating” value [1, 12] was 100. For the same compound, the “Pigweed plant response rating” value [1, 13] was 95, the “Plant response rating (0 = no effect, 100 = complete control), Lambsquarters” value ([2]; 62 g ai/ha, preemergence) was 20 and the “Plant response rating, Lambsquarters” value [2, 14] was 60. The “Lambsquarters plant response rating” value [2, 17] was 100, the “Foxtail, Giant plant response rating” value [3, 10] was 40 and the “Plant response rating, Foxtail, Giant” value [3, 11] was 60. The “Foxtail, Giant plant response rating” value [3, 20] was 85, the “Foxtail, Giant plant response rating” value [3, 12] was 100 and the “Plant response rating (0 = no effect, 100 = complete control), Surinam Grass” value ([4]; 62 g ai/ha, preemergence) was 0. The “Plant response rating, Surinam Grass” value [4, 14] was 50, the “Surinam Grass plant response rating” value [4, 17] was 70 and the “Plant response rating (0 = no effect, 100 = complete control), Nutsedge, Yellow” value ([5]; 62 g ai/ha, preemergence) was 0. The “Plant response rating, Nutsedge, Yellow” value [5, 14] was 0, the “Nutsedge, Yellow plant response rating” value [5, 17] was 0 and the “Plant response rating, Crabgrass, Large” value [6, 14] was 50. The “Plant response rating, Crabgrass, Large” value ([6]; 250 g ai/ha, scale 0 to 100 (0 no effect, 100 complete control), visual, 12 to 14 days, preemergence) was 80, the “Crabgrass, Large plant response rating” value [6, 17] was 80 and the “Plant response rating, Barnyardgrass” value [7, 21] was 100. For the same compound, the “Barnyardgrass plant response rating” value [7, 22] was 0, the “Barnyardgrass plant response rating” value [7, 23] was 40 and the “Plant response rating, Barnyardgrass” value [7, 24] was 70. The “Ducksalad plant response rating” value ([8]; visual rating, 13 to 15 days) was 70, the “Plant response rating (0 = no effect, 100 = complete control), Ragweed” value ([9]; 62 g ai/ha, preemergence) was 0 and the “Plant response rating, Ragweed” value [9, 14] was 0. The “Ragweed plant response rating” value [9, 17] was 20.
